# Source: patent US20220387403A1, “COMPOUNDS, COMPOSITIONS AND METHODS FOR TREATING NASH, NAFLD, AND OBESITY” (CVI Pharmaceuticals Limited, priority 2019, published 2022)
# Like-named read-outs stand apart in the source and are kept apart here.
# How the values were obtained:
# LDLR mRNA [1] = assay: LDLR mRNA expression in HepG2 cells, semi-quantitative RT-PCR; format: cell-based, human; conditions: 8 hours, FIG. 3
# Procedure: HepG2 cells obtained from American Tissue Culture Collection (Manassas, Va., USA) were seeded in 6-well culture plates at a density of 0.8×10^6 cells/well cultured in EMEM containing 0.5% FBS and were treated with each purified compound at indicated doses for 8 hours. Total RNA was isolated, and 2 μg per sample was reverse transcribed with random primers using M-MLV (Promega) at 37° C. for 1 hour. PCR was carried out at 94° C. for 30 sec, 60° C. for 30 sec, and 72° C. for 30 sec with initial activation of the enzyme at 94° C. for 1 minute. Thirty cycles were performed for LDLR and GAPDH. PCR was performed using primers HLDLR-up and HLDLR-lo for LDLR and primers HGAPDH-up and HGAPDH-lo for GAPDH. The PCR products were separated on a 1% agarose gel and the band intensity was quantitated. LDLR mRNA levels were corrected by measuring GAPDH mRNA levels.
# Specific stereochemical requirements of +/−THP in the upregulation of LDLR mRNA expression were determined by a similar experiment. HepG2 cells were treated with the pure 14R-(+)-THP or the pure 14S-(−)-THP at the indicated concentrations for 24 hours. The levels of LDLR mRNA and GAPDH mRNA in untreated and the compound-treated HepG2 cells were assessed by semi-quantitative RT-PCR.
# LDLR = assay: Western blot of LDLR protein in HepG2 cells; format: cell-based, human; conditions: for LDLR protein levels (in words): 20 μM, 1, 2 and 3 days
# Procedure: (§1) Cells were harvested after 1, 2, and 3 days treatment and western blot analysis was conducted using antibodies directed to LDLR and PCSK9. Chicken anti-LDLR was purchased from Abcam, the mouse anti-PCSK9 was purchased from Cayman Chemicals, and anti-pACC was purchased from Cell Signaling.
# (§2) To determine whether the stimulatory effects of statins on LDLR protein expression could be enhanced by some new compounds invented herein, HepG2 cells were untreated or treated with a low dose of rosuvastatin (RSV) at 0.3 and 1 uM concentration in the absence or the presence of Compound 127(+), or treated with low concentrations of Compound 127(+) alone for 2 days. Western blot analysis was conducted to examine LDLR and PCSK9 protein levels. Compound 127(+) is the single enantiomer of compound 127 with a positive optical rotation. […] Furthermore, the inducing effects of RSV on PCSK9 protein levels were antagonized by compound 127(+).
# (§3) Chicken anti-LDLR was purchased from Abcam and the mouse anti-PCSK9 was purchased from Cayman Chemicals. HepG2 cells cultured in 60-mm dishes were incubated overnight in medium containing 0.5% fetal bovine serum prior to the addition of compounds at 20 uM concentration for 1-3 days. Total cell lysate was isolated and 50 μg of protein was separated on SDS-PAGE and transferred to nitrocellulose membrane for immunoblotting with anti-LDLR, anti-PCSK9, and anti-p-ACC.
# PCSK9 = assay: Western blot of PCSK9 protein in HepG2 cells; format: cell-based, human; conditions: for expression of PCSK9 protein (in words): 20 μM, 1, 2 and 3 days
# Procedure: as §1, §2, §3
# ACC = assay: Western blot of phosphorylated ACC in HepG2 cells; format: cell-based, human; conditions: 20 μM, 1, 2 and 3 days
# Procedure: as §1, §3
# hyperlipidemic rabbits [2] = assay: Lipid lowering effects and blood chemistry in hyperlipidemic rabbits; conditions: for serum total cholesterol level: in mM
# Procedure: (§5) Forty-two male Japanese rabbits were fed the cholesterol enriched rabbit diet for two weeks to induce hypercholesterolemia. […] Serum samples were collected at day 0 (before the drug treatment) and day 7. […] All tested animals were sacrificed at the end of a total of 14 days treatment and serum samples were analyzed for TC, LDL-C, TG, and HDL-C. In addition to lipid profiles, a number of biochemical parameters were also analyzed to aseesee the effects of drug treatments on liver function, muscle function, kidney function, and heart function.
# hyperlipidemic rabbits [3] = conditions: rabbit, in vivo
# Procedure: as §5
# LDLR mRNA [4] = assay: LDLR mRNA expression in HepG2 cells, quantitative real-time RT-PCR; format: cell-based, human; conditions: 24 hours, mean ± s.d.
# Procedure: Activities of some compounds of Formulas I, II, III, and IV on LDLR mRNA expression were determined. HepG2 cells were treated with new compounds individually at a dose less than or equal to 10 μM for 24 hours. Total RNA was harvested for quantitative real-time RT-PCR analysis using the method described in Example 16B. […] In these experiments, berberine chloride was included for comparison. […]
# Total RNA was harvested for quantitative real-time RT-PCR analysis using method described in Examples 16B.
# (§4) The effects of 23 compounds on the mRNA expressions of LDLR and PCSK9 were examined using quantitative real-time RT-PCR assays. HepG2 cells were treated with various compounds at 10 and 40 uM concentrations for 24 hours. Total RNA was isolated and 2 μg was used to generate cDNA in a reaction containing random primers and M-MLV at 37° C. for 1 h in a volume of 25 μl. Real-time PCR was performed on the cDNA using MCEP REALPLEX 2 SYSTEM (Eppendorf) and Universal MasterMix (Applied Biosystems). Human LDLR, PCSK9, and GAPDH Pre-Developed TaqMan Assay Reagents (Applied Biosystems) were used to assess the levels of mRNA expressions in HepG2. The levels of LDLR and PCSK9 mRNA were normalized to that of GAPDH. Each RNA samples was assayed in duplicate. The fold activity was calculated by dividing mRNA abundance in compound treated cells with that of control.
# PCSK9 mRNA = PCSK9 mRNA expression in HepG2 cells, quantitative real-time RT-PCR; format: cell-based, human; conditions: 24 hours, mean ± s.d.
# Procedure: The time-dependent effects of compounds of Formula I, II, III, and IV on the upregulation of LDLR mRNA and the inhibition of PCSK9 mRNA expression were examined (Horton J D, Cohen J C, Hobbs H H. “Molecular biology of PCSK9: its role in LDL metabolism” TRENDS in Biochemical Sciences 2007; 32:71-77). HepG2 cells were treated with new compounds individually at 20 uM dose for 1 day, 2 day, and 3 days. Total RNA was isolated and 2 μg was used to generate cDNA in a reaction containing random primers and M-MLV at 37° C. for 1 hour in a volume of 25 μl. Real-time PCR was performed on the cDNA using MCEP REALPLEX 2 SYSTEM (Eppendorf) and Universal MasterMix (Applied Biosystems). Human LDLR, PCSK9, and GAPDH Pre-Developed TaqMan Assay Reagents (Applied Biosystems) were used to assess the levels of mRNA expressions in HepG2. The levels of LDLR mRNA or PCSK9 mRNA were normalized to that of GAPDH. Each RNA samples was assayed in triplicate. The abundance of LDLR mRNA or PCSK9 mRNA in untreated cells was defined as 1, and the amounts of LDLR mRNA or PCSK9 from compound-treated cells were plotted relative to that value (FIG. 10). The data shown are mean±s.d.
# Total RNA was harvested for quantitative real-time RT-PCR analysis using method described in Examples 16B. The fold activity was derived by dividing the amount of normalized LDLR or PCSK9 mRNA in compound-treated cells over the amount of LDLR or PCSK9 mRNA in untreated control cells.
# as §4
# NAFLD hamster model = assay: High fat and high cholesterol diet induced NAFLD hamster model; format: in vivo; conditions: C127 80 mg/kg, 4 weeks
# Procedure: In a high fat and high cholesterol diet (HFHCD) induced non-alcoholic fat liver disease (NAFLD) hamster model, hamsters were fed a HFHCD for two weeks then treated for 4 weeks with C128 at 10 mg/kg, 20 mg/kg and 40 mg/kg, along with fenofibrate at 50 mg/kg as a positive control. Serum lipids and liver enzymes were measured using standard techniques. Liver tissue histopathology with Oil-red O staining and H&E staining were also performed.
# In a high fat and high cholesterol diet (HFHCD) induced NAFLD hamster model, hamsters were fed a HFHCD for two weeks then treated for 4 weeks with C127 at 80 mg/kg or with fenofibrate 50 mg/kg.
# obese Cynomolgus monkeys = assay: Obese Cynomolgus monkeys fed a high fat diet (DEXA scan, serum parameters); format: in vivo; conditions: 40 mg/kg/day PO three weeks, then 80 mg/kg/day weeks 4-6
# Excerpt: Twelve obese Cynomolgus monkeys were fed a high fat diet containing 0.5% cholesterol for 6 weeks before the treatment phase. Before the treatment with compound 127 (C127) or vehicle, all animals received a assessment of whole body and fat composition using Dual Energy X-Ray Absorptiometry (DEXA) whole body scan to measure body fat content and bone mineral density/content (reference: Black, A., Tilmont, E. M., Baer, D. J., Rumpler W. V., et. Al. Accuracy and precision of dual-energy X-ray absorptiometry for body composition measurements in rhesus monkeys. Journal of Medical Primatology, 30:94-99, 2001. Six monkeys received vehicle by PO and six monkeys received C127 at 40 mg/kg/day by PO for three weeks; from week 4-6, C127 dose was increased to 80 mg/kg/day. Dosing was ended after 6-weeks treatment, followed by DEXA scan on all animals.
# [5] = with rosuvastatin 0.3 and 1 uM, 2 days
# [6] = after 14 days of drug treatment, mean, n = 6
# [7] = treatment day 0 (before the drug treatment), mean ± SD, n = 6
# [8] = treatment day 4, 128(+)/128(−) 30 mg/kg, SMV/ATV 3 mg/kg once a day oral gavage
# [9] = treatment day 7, 128(+)/128(−) 30 mg/kg, SMV/ATV 3 mg/kg once a day oral gavage
# [10] = treatment day 10, from day 7 128(+)/128(−) 60 mg/kg, SMV/ATV 10 mg/kg
# [11] = treatment day 14, from day 7 128(+)/128(−) 60 mg/kg, SMV/ATV 10 mg/kg
structure (smiles),measurement,setting,value
"COc1cc2c(cc1OC)[C@H]1[C@@H](C)c3ccc(OC)c(OC)c3CN1CC2 [14R,13S-(+)-CRDL, 14R,13S-(+)-corydaline]",effects on LDLR mRNA expression (in words),LDLR mRNA [1],potent and dose-dependent effects
"COc1cc2c(cc1O)CCN1Cc3c(ccc(OC)c3OC)CC21 (stereo not drawn) [14R-(+)-CRPM, 14R-(+)-corypalmine]",effects on LDLR mRNA expression (in words),LDLR mRNA [1],potent and dose-dependent effects
"COc1cc2c(cc1OC)[C@H]1Cc3ccc(OC)c(OC)c3CN1CC2 [14R-(+)-THP, 14R-(+)-tetrahydropalmatine]",effects on LDLR mRNA expression (in words),LDLR mRNA [1],potent and dose-dependent effects
"COc1cc2c(cc1OC)C1Cc3ccc(OC)c(OS(=O)(=O)c4cccc(F)c4)c3CN1CC2 (stereo not drawn) [127(+), 2,3,10-Trimethoxy-5,6,7,8,13,13a-hexahydroisoquinolino[2,1-b]isoquinolin-9-yl 3-fluorobenzenesulfonate]",LDLR protein levels (in words),LDLR,effectively increased
same,"stimulatory effects of statins on LDLR protein expression, combination (in words)",LDLR; [5],further improved
same,expression of PCSK9 protein (in words),PCSK9,strongly inhibited
same,"inducing effects of RSV on PCSK9 protein levels, combination (in words)",PCSK9; [5],antagonized
same,ACC phosphorylation (in words),ACC,induced
"COc1ccc2c(c1)CCN1Cc3c(ccc(OC)c3OS(=O)(=O)c3cccc(F)c3)CC21 (stereo not drawn) [128(+), 3,10-Dimethxoy-5,6,7,8,13,13a-hexahydroisoquinolino[2,1-b]isoquinolin-9-yl 3-fluorobenzenesulfonate]",LDLR protein levels (in words),LDLR,effectively increased
same,expression of PCSK9 protein (in words),PCSK9,strongly inhibited
same,ACC phosphorylation (in words),ACC,induced
same,ALP,hyperlipidemic rabbits [2]; [6],165.2 IU/L
same,ALT,hyperlipidemic rabbits [2]; [6],68.7 IU/L
same,AST,hyperlipidemic rabbits [2]; [6],20.8 IU/L
same,CK,hyperlipidemic rabbits [2]; [6],1172.3 U/L
same,CREA,hyperlipidemic rabbits [2]; [6],97.2 µmol/L
same,GLU,hyperlipidemic rabbits [2]; [6],7.9 mmol/L
same,HDL-C,hyperlipidemic rabbits [2]; [6],3.6 mmol/L
same,LDH,hyperlipidemic rabbits [2]; [6],47.7 IU/L
same,LDL-C,hyperlipidemic rabbits [2]; [6],29.7 mmol/L
same,TC,hyperlipidemic rabbits [2]; [6],34.2 mmol/L
same,TG,hyperlipidemic rabbits [2]; [6],1.0 mmol/L
same,body weight,hyperlipidemic rabbits [2]; [6],2.6 kg
same,serum total cholesterol level,hyperlipidemic rabbits [2]; [7],28.6 ± 6.7
same,serum total cholesterol level,hyperlipidemic rabbits [2]; [8],31.9 ± 7.5
same,serum total cholesterol level,hyperlipidemic rabbits [2]; [9],33.9 ± 7.2
same,serum total cholesterol level,hyperlipidemic rabbits [2]; [10],33.8 ± 7.8
same,serum total cholesterol level,hyperlipidemic rabbits [2]; [11],34.2 ± 7.4
"COc1ccc2c(c1)CCN1Cc3c(ccc(OC)c3OS(=O)(=O)c3cccc(F)c3)CC21 (stereo not drawn) [128(−), 3,10-Dimethxoy-5,6,7,8,13,13a-hexahydroisoquinolino[2,1-b]isoquinolin-9-yl 3-fluorobenzenesulfonate]",LDLR protein levels (in words),LDLR,effectively increased
same,expression of PCSK9 protein (in words),PCSK9,strongly inhibited
same,ACC phosphorylation (in words),ACC,induced
same,ALP,hyperlipidemic rabbits [3],155.5 IU/L
same,ALT,hyperlipidemic rabbits [3],50.2 IU/L
same,AST,hyperlipidemic rabbits [3],20.8 IU/L
same,CK,hyperlipidemic rabbits [3],997.5 U/L
same,CREA,hyperlipidemic rabbits [3],105.2 µmol/L
same,GLU,hyperlipidemic rabbits [3],7.9 mmol/L
same,LDH,hyperlipidemic rabbits [3],50.3 IU/L
same,adverse effect / toxicities (in words),hyperlipidemic rabbits [3],absence of any adverse effect
same,TC and LDL-C reduction (in words),hyperlipidemic rabbits [2]; 14 days treatment,strong TC and LDL-C reduction
same,HDL-C,hyperlipidemic rabbits [2]; [6],3.5 mmol/L
same,LDL-C,hyperlipidemic rabbits [2]; [6],24.4 mmol/L
same,TC,hyperlipidemic rabbits [2]; [6],29.7 mmol/L
same,TG,hyperlipidemic rabbits [2]; [6],0.9 mmol/L
same,serum total cholesterol level,hyperlipidemic rabbits [2]; [7],28.5 ± 6.3
same,serum total cholesterol level,hyperlipidemic rabbits [2]; [8],29.9 ± 8.0
same,serum total cholesterol level,hyperlipidemic rabbits [2]; [9],29.0 ± 7.9
same,serum total cholesterol level,hyperlipidemic rabbits [2]; [10],27.9 ± 5.2
same,serum total cholesterol level,hyperlipidemic rabbits [2]; [11],29.7 ± 4.9
"COc1cc2c(cc1OC)C1Cc3ccc(OC)c(OS(=O)(=O)c4cccc(F)c4)c3CN1CC2 (stereo not drawn) [Compound 127, 2,3,10-trimethoxy-5,6,7,8,13,13a-hexahydroisoquinolino[2,1-b]isoquinolin-9-yl 3-fluorobenzenesulfonate]",Activity on LDLR mRNA at 10 uM (fold of control),LDLR mRNA [4]; 10 uM,1.80 ± 0.13 fold of control
same,Activity on LDLR mRNA at 40 uM (fold of control),LDLR mRNA [4]; 40 uM,2.38 ± 0.38 fold of control
same,Activity on PCSK9 mRNA reduction at 10 uM (fold of control),PCSK9 mRNA; 10 uM,0.197 ± 0.014 fold of control
same,Activity on PCSK9 mRNA reduction at 40 uM (fold of control),PCSK9 mRNA; 40 uM,0.192 ± 0.016 fold of control
same,"hepatocyte lipid droplet vacuoles, cell and neutrophil infiltration (H&E)",NAFLD hamster model,reduced
same,hypolipidemic effect,NAFLD hamster model,significant hypolipidemic effect
same,lipid deposition in the liver,NAFLD hamster model,effectively reduced
same,"body weight, BMI and body fat (DEXA)",obese Cynomolgus monkeys,reduced
same,bone mineral content (DEXA),obese Cynomolgus monkeys,improved
same,liver enzyme ALT,obese Cynomolgus monkeys,significant reduction
same,"serum LDL-C, TC",obese Cynomolgus monkeys,trend in reducing
